Results reported in ChEMBL document CHEMBL4431343, “Synthesis and activity of novel homodimers of Morita-Baylis-Hillman adducts against Leishmania donovani: A twin drug approach” (Bioorg Med Chem Lett, 2016).

What was measured:
Leishmania donovani [1] = experiment: Antileishmanial activity against promastigote forms of Leishmania donovani MHOM/ET/1967/HU3 assessed as reduction in cell viability after 72 hrs by MTT assay; assay type: functional, organism-based; conditions: MHOM/ET/1967/HU3, 72 h
[2] = Selectivity index, ratio of HC50 for human red blood cells to IC50 for promastigote forms of Leishmania donovani MHOM/ET/1967/HU3; assay type: toxicity; conditions: read-out: Selectivity Index
[3] = Hemolytic activity in human red blood cells; assay type: cell-based, Erythrocyte; conditions: red blood cells (erythrocytes)
Leishmania donovani [4] = experiment: Potency index, ratio of Amphotericin B IC50 to compound IC50 for promastigote forms of Leishmania donovani MHOM/ET/1967/HU3; assay type: functional

| Structure (SMILES) | IC50 (Leishmania donovani [1]) [µM] | selectivity ratio [2] | HC50 [3] [µM] | Ratio IC50 (Leishmania donovani [4]) |
| --- | --- | --- | --- | --- |
| C=C(C(=O)OCCOC(=O)C(=C)C(O)c1ccc(F)cc1)C(O)c1ccc(F)cc1 (centres undefined) | 42.4 | – | – | – |
| C=C(C(=O)OCCOC(=O)C(=C)C(O)c1ccc(Cl)cc1)C(O)c1ccc(Cl)cc1 (centres undefined) | 10.5 | > 19.1 | > 200 | – |
| C=C(C(=O)OC)C(O)c1ccc(F)cc1 (centres undefined) | 610 | – | – | – |
| C=C(C(=O)OC)C(O)c1ccccc1[N+](=O)[O-] (centres undefined) | 690 | – | – | – |
| C=C(C(=O)OCCOC(=O)C(=C)C(O)c1ccc2ccccc2c1)C(O)c1ccc2ccccc2c1 (centres undefined) | 39 | – | – | – |
| C=C(C(=O)OCCOC(=O)C(=C)C(O)c1cccc([N+](=O)[O-])c1)C(O)c1cccc([N+](=O)[O-])c1 (centres undefined) | 43 | – | – | – |
| C=C(C(=O)OC)C(O)c1ccc([N+](=O)[O-])cc1 (centres undefined) | 165 | – | – | – |
| C=C(C(=O)OCCOC(=O)C(=C)C(O)c1ccc(Br)cc1)C(O)c1ccc(Br)cc1 (centres undefined) | 0.5 | > 400 | > 200 | 1.24 |
| C[C@@H]1[C@H](O)[C@@H](C)/C=C/C=C/C=C/C=C/C=C/C=C/C=C/[C@H](O[C@@H]2O[C@H](C)[C@@H](O)[C@H](N)[C@@H]2O)C[C@@H]2O[C@](O)(C[C@@H](O)C[C@@H](O)[C@H](O)CC[C@@H](O)C[C@@H](O)CC(=O)O[C@H]1C)C[C@H](O)[C@H]2C(=O)O [AMPHOTERICIN B] | 0.62 | 18.7 | 11.6 | – |
| C=C(C(=O)OCCOC(=O)C(=C)C(O)c1ccccc1[N+](=O)[O-])C(O)c1ccccc1[N+](=O)[O-] (centres undefined) | 24.8 | – | – | – |
| C=C(C(=O)OC)C(O)c1ccc2ccccc2c1 (centres undefined) | 185 | – | – | – |
| C=C(C(=O)OC)C(O)c1cccc([N+](=O)[O-])c1 (centres undefined) | 161 | – | – | – |
| C=C(C(=O)OC)C(O)c1ccccc1 (centres undefined) | 953 | – | – | – |
| C=C(C(=O)OCCOC(=O)C(=C)C(O)c1ccccc1)C(O)c1ccccc1 (centres undefined) | 126 | – | – | – |
| C=C(C(=O)OC)C(O)c1ccc(Cl)cc1 (centres undefined) | 202 | – | – | – |
| C=C(C(=O)OC)C(O)c1ccc(Br)cc1 (centres undefined) | 197 | – | – | – |
| C=C(C(=O)OCCOC(=O)C(=C)C(O)c1ccc([N+](=O)[O-])cc1)C(O)c1ccc([N+](=O)[O-])cc1 (centres undefined) | 44.6 | – | – | – |
